# Source: US6737383B1, “Herbicidal oxadiazolidines” (priority 1999, dated 2004)
# Columns and labels:
# velvetleaf = assay: Test B pre/postemergence velvetleaf; format: in vivo, Abutilon theophrasti; details: for Velvetleaf plant response rating: scale of 0 to 10 where 0 is no effect and 10 is complete control
# Outline: (§1)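 Test chemicals in a non-phytotoxic solvent mixture with surfactant were sprayed preemergence onto planted seeds and postemergence onto plants 2 to 18 cm tall (1- to 4-leaf stage). After twelve to sixteen days in a greenhouse, injury was visually rated against untreated controls from 0 (no effect) to 10 (complete control).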
# pigweed = assay: Test B pre/postemergence pigweed; format: in vivo, Amaranthus retroflexus; details: for Redroot pigweed plant response rating: scale of 0 to 10 where 0 is no effect and 10 is complete control
# Outline: as §1
# corn = assay: Test B pre/postemergence corn; format: in vivo, Zea mays; details: for Corn plant response rating: scale of 0 to 10 where 0 is no effect and 10 is complete control
# Outline: as §1
# wheat = assay: Test B pre/postemergence wheat; format: in vivo, Triticum aestivum; details: for Wheat plant response rating: scale of 0 to 10 where 0 is no effect and 10 is complete control
# Outline: as §1
# soybean = assay: Test B pre/postemergence soybean; format: in vivo, Glycine max; details: for Soybean plant response rating: scale of 0 to 10 where 0 is no effect and 10 is complete control
# Outline: as §1
# rice = assay: Test B flood test rice; format: in vivo, Oryza sativa
# Outline: (§2)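 Each value is a visual injury score relative to controls, with 10 meaning complete control and 0 no effect. Evaluation took place twelve to sixteen days after the 2-leaf-stage plants were treated and kept in the greenhouse.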
# sugar beet = assay: Test B pre/postemergence sugar beet; format: in vivo, Beta vulgaris; details: for Sugarbeets plant response rating: scale of 0 to 10 where 0 is no effect and 10 is complete control
# Outline: as §1
# crabgrass = assay: Test B pre/postemergence crabgrass; format: in vivo, Digitaria sanguinalis; details: for Crabgrass plant response rating: scale of 0 to 10 where 0 is no effect and 10 is complete control
# Outline: as §1
# cocklebur = assay: Test B pre/postemergence cocklebur; format: in vivo, Xanthium strumarium; details: for Cocklebur plant response rating: scale of 0 to 10 where 0 is no effect and 10 is complete control
# Outline: as §1
# purple nutsedge = assay: Test B pre/postemergence purple nutsedge; format: in vivo, Cyperus rotundus; details: for Nutsedge plant response rating: scale of 0 to 10 where 0 is no effect and 10 is complete control
# Outline: as §1
# giant foxtail = assay: Test B pre/postemergence giant foxtail; format: in vivo, Setaria faberii; details: for Giant foxtail plant response rating: scale of 0 to 10 where 0 is no effect and 10 is complete control
# Outline: as §1
# wild oat = assay: Test B pre/postemergence wild oat; format: in vivo, Avena fatua; details: for Wild oats plant response rating: scale of 0 to 10 where 0 is no effect and 10 is complete control
# Outline: as §1
# rape = assay: Test B pre/postemergence rape; format: in vivo, Brassica napus; details: for Rape plant response rating: scale of 0 to 10 where 0 is no effect and 10 is complete control
# Outline: as §1
# morningglory = assay: Test B pre/postemergence morningglory; format: in vivo, Ipomoea hederacea; details: for Morningglory plant response rating: scale of 0 to 10 where 0 is no effect and 10 is complete control
# Outline: as §1
# bamyardgrass = assay: Test B flood test barnyardgrass; format: in vivo, Echinochloa crus-galli
# Outline: as §2
# duck salad = assay: Test B flood test duck salad; format: in vivo, Heteranthera limosa
# Outline: as §2
# [1] = Postemergence, Rate 125 g/ha, scale 0 to 10, 0 is no effect, 10 is complete control
# [2] = Preemergence, Rate 62 g/ha, scale 0 to 10 (0 no effect, 10 complete control)
# [3] = Rate 500 g/ha, Postemergence, scale 0 to 10, 0 no effect, 10 complete control
# [4] = Postemergence (flood test), Rate 125 g/ha, scale 0 to 10, 0 is no effect, 10 is complete control
# [5] = Rate 62 g/ha, Postemergence (flood test species), scale of 0 to 10 where 0 is no effect and 10 is complete control
# [6] = Rate 500 g/ha, listed under Postemergence (flood test species), scale 0 to 10, 0 no effect, 10 complete control
smiles,measurement,setting,value
CC(C)N(C(=O)n1oc(=O)n(C2CCC2)c1=O)c1ccc(Cl)cc1 [Compound 349],"Plant response rating, Velvetleaf",velvetleaf; [1],0
same,"Plant response rating, Velvetleaf",velvetleaf; [2],0
same,Velvetleaf plant response rating (0 to 10 scale),"velvetleaf; Preemergence, Rate 125 g/ha",0
same,Velvetleaf plant response rating,"velvetleaf; Preemergence, Rate 250 g/ha",3
same,Velvetleaf plant response rating,"velvetleaf; Preemergence, Rate 500 g/ha",3
same,Velvetleaf plant response rating,"velvetleaf; Rate 62 g/ha, Postemergence",0
same,"Plant response rating, Velvetleaf",velvetleaf; [3],0
same,"Plant response rating, Redroot pigweed",pigweed; [1],2
same,"Plant response rating, Redroot pigweed",pigweed; [2],0
same,Redroot pigweed plant response rating (0 to 10 scale),"pigweed; Preemergence, Rate 125 g/ha",0
same,Redroot pigweed plant response rating,"pigweed; Preemergence, Rate 250 g/ha",2
same,Redroot pigweed plant response rating,"pigweed; Preemergence, Rate 500 g/ha",7
same,Redroot pigweed plant response rating,"pigweed; Rate 62 g/ha, Postemergence",0
same,"Plant response rating, Redroot pigweed",pigweed; [3],4
same,"Plant response rating, Corn",corn; [1],0
same,"Plant response rating, Corn",corn; [2],0
same,Corn plant response rating (0 to 10 scale),"corn; Preemergence, Rate 125 g/ha",0
same,Corn plant response rating,"corn; Preemergence, Rate 250 g/ha",0
same,Corn plant response rating,"corn; Preemergence, Rate 500 g/ha",2
same,Corn plant response rating,"corn; Rate 62 g/ha, Postemergence",0
same,"Plant response rating, Corn",corn; [3],0
same,"Plant response rating, Wheat",wheat; [1],0
same,"Plant response rating, Wheat",wheat; [2],0
same,Wheat plant response rating (0 to 10 scale),"wheat; Preemergence, Rate 125 g/ha",0
same,Wheat plant response rating,"wheat; Preemergence, Rate 250 g/ha",0
same,Wheat plant response rating,"wheat; Preemergence, Rate 500 g/ha",0
same,Wheat plant response rating,"wheat; Rate 62 g/ha, Postemergence",0
same,"Plant response rating, Wheat",wheat; [3],3
same,"Plant response rating, Soybean",soybean; [1],2
same,"Plant response rating, Soybean",soybean; [2],0
same,Soybean plant response rating (0 to 10 scale),"soybean; Preemergence, Rate 125 g/ha",0
same,Soybean plant response rating,"soybean; Preemergence, Rate 250 g/ha",0
same,Soybean plant response rating,"soybean; Preemergence, Rate 500 g/ha",0
same,Soybean plant response rating,"soybean; Rate 62 g/ha, Postemergence",1
same,"Plant response rating, Soybean",soybean; [3],2
same,"Plant response rating, Rice",rice; [4],0
same,Rice plant response rating,rice; [5],0
same,"Plant response rating, Rice",rice; [6],0
same,"Plant response rating, Sugarbeets",sugar beet; [1],0
same,"Plant response rating, Sugarbeets",sugar beet; [2],0
same,Sugarbeets plant response rating (0 to 10 scale),"sugar beet; Preemergence, Rate 125 g/ha",2
same,Sugarbeets plant response rating,"sugar beet; Preemergence, Rate 250 g/ha",4
same,Sugarbeets plant response rating,"sugar beet; Preemergence, Rate 500 g/ha",4
same,Sugarbeets plant response rating,"sugar beet; Rate 62 g/ha, Postemergence",0
same,"Plant response rating, Sugarbeets",sugar beet; [3],0
same,"Plant response rating, Crabgrass",crabgrass; [1],0
same,"Plant response rating, Crabgrass",crabgrass; [2],3
same,Crabgrass plant response rating (0 to 10 scale),"crabgrass; Preemergence, Rate 125 g/ha",6
same,Crabgrass plant response rating,"crabgrass; Preemergence, Rate 250 g/ha",8
same,Crabgrass plant response rating,"crabgrass; Preemergence, Rate 500 g/ha",9
same,Crabgrass plant response rating,"crabgrass; Rate 62 g/ha, Postemergence",0
same,"Plant response rating, Crabgrass",crabgrass; [3],3
same,"Plant response rating, Cocklebur",cocklebur; [1],0
same,"Plant response rating, Cocklebur",cocklebur; [2],0
same,Cocklebur plant response rating (0 to 10 scale),"cocklebur; Preemergence, Rate 125 g/ha",0
same,Cocklebur plant response rating,"cocklebur; Preemergence, Rate 500 g/ha",0
same,Cocklebur plant response rating,"cocklebur; Rate 62 g/ha, Postemergence",0
same,"Plant response rating, Cocklebur",cocklebur; [3],1
same,"Plant response rating, Nutsedge",purple nutsedge; [1],0
same,"Plant response rating, Nutsedge",purple nutsedge; [2],0
same,Nutsedge plant response rating (0 to 10 scale),"purple nutsedge; Preemergence, Rate 125 g/ha",0
same,Nutsedge plant response rating,"purple nutsedge; Preemergence, Rate 250 g/ha",0
same,Nutsedge plant response rating,"purple nutsedge; Preemergence, Rate 500 g/ha",0
same,Nutsedge plant response rating,"purple nutsedge; Rate 62 g/ha, Postemergence",0
same,"Plant response rating, Nutsedge",purple nutsedge; [3],0
same,"Plant response rating, Giant foxtail",giant foxtail; [1],0
same,"Plant response rating, Giant foxtail",giant foxtail; [2],8
same,Giant foxtail plant response rating (0 to 10 scale),"giant foxtail; Preemergence, Rate 125 g/ha",9
same,Giant foxtail plant response rating,"giant foxtail; Preemergence, Rate 250 g/ha",10
same,Giant foxtail plant response rating,"giant foxtail; Preemergence, Rate 500 g/ha",10
same,Giant foxtail plant response rating,"giant foxtail; Rate 62 g/ha, Postemergence",0
same,"Plant response rating, Giant foxtail",giant foxtail; [3],9
same,"Plant response rating, Wild oats",wild oat; [1],0
same,"Plant response rating, Wild oats",wild oat; [2],0
same,Wild oats plant response rating (0 to 10 scale),"wild oat; Preemergence, Rate 125 g/ha",0
same,Wild oats plant response rating,"wild oat; Preemergence, Rate 250 g/ha",3
same,Wild oats plant response rating,"wild oat; Preemergence, Rate 500 g/ha",9
same,Wild oats plant response rating,"wild oat; Rate 62 g/ha, Postemergence",0
same,"Plant response rating, Wild oats",wild oat; [3],3
same,"Plant response rating, Rape",rape; [1],0
same,"Plant response rating, Rape",rape; [2],0
same,Rape plant response rating (0 to 10 scale),"rape; Preemergence, Rate 125 g/ha",0
same,Rape plant response rating,"rape; Preemergence, Rate 250 g/ha",0
same,Rape plant response rating,"rape; Preemergence, Rate 500 g/ha",4
same,Rape plant response rating,"rape; Rate 62 g/ha, Postemergence",0
same,"Plant response rating, Rape",rape; [3],0
same,"Plant response rating, Morningglory",morningglory; [1],5
same,"Plant response rating, Morningglory",morningglory; [2],0
same,Morningglory plant response rating (0 to 10 scale),"morningglory; Preemergence, Rate 125 g/ha",0
same,Morningglory plant response rating,"morningglory; Preemergence, Rate 250 g/ha",0
same,Morningglory plant response rating,"morningglory; Preemergence, Rate 500 g/ha",0
same,Morningglory plant response rating,"morningglory; Rate 62 g/ha, Postemergence",5
same,"Plant response rating, Morningglory",morningglory; [3],10
same,"Plant response rating, Barnyardgrass",bamyardgrass; [4],2
same,Barnyardgrass plant response rating,bamyardgrass; [5],2
same,"Plant response rating, Barnyardgrass","bamyardgrass; Rate 250 g/ha, Postemergence (flood test species), scale of 0 to 10 where 0 is no effect and 10 is complete control",9
same,"Plant response rating, Barnyardgrass",bamyardgrass; [6],9
same,"Plant response rating, Ducksalad",duck salad; [4],0
same,Ducksalad plant response rating,duck salad; [5],0
same,"Plant response rating, Ducksalad",duck salad; [6],4
